This is an account of results in patent US20170119844A1, “HEMOSTATIC PHARMACEUTICAL COMPOSITION” (OTSUKA CHEMICAL CO., LTD., priority 2014, published 2017).

A short description of this series: Solubility in ultrapure water when preparing peptide solutions. The class given is physicochemical.

SMILES strings stand for the structures.

For `CC(=O)N[C@@H](CCCNC(=N)N)C(=O)N[C@@H](C)C(=O)N[C@@H](CC(=O)O)C(=O)N[C@@H](C)C(=O)N[C@@H](CCCNC(=N)N)C(=O)N[C@@H](C)C(=O)N[C@@H](CC(=O)O)C(=O)N[C@@H](C)C(=O)N[C@@H](CCCNC(=N)N)C(=O)N[C@@H](C)C(=O)N[C@@H](CC(=O)O)C(=O)N[C@@H](C)C(=O)N[C@@H](CCCNC(=N)N)C(=O)N[C@@H](C)C(=O)N[C@@H](CC(=O)O)C(=O)N[C@@H](C)C(N)=O` [(RADA)4], the solubility in water entry is reported as “did not completely dissolve at a concentration of 2% by weight or higher”.
